This passage reports cytotoxicity results from ChEMBL document CHEMBL3507680, “University of Dundee, Gates Library screen for HepG2 cell viability”.

Each structure is given as a SMILES string.

A short description of this data set: Human HepG2 cell viability assay in 384 well format. In kind it is toxicity, cell-based. Also on record: dose 125 nL, time 70.5 hour; cytotoxicity at 70.5 h: concentration not given beside the values. The following applies: HepG2 cells, read-out: Inhibition.
Take `CCc1nc(C)c([C@H]2CN(C)C[C@@H]2C(=O)Nc2ccc(OC)nc2)[nH]1`: the cytotoxicity at 70.5 h is -1.87%.

Take `C[C@H](C(=O)N1Cc2ccccc2CC2(CCCN2C)C1)c1ccccc1` (some centres undefined): the cytotoxicity at 70.5 h was -5.49%.

As to `CCn1ncnc1C(C)NC(=O)COc1ccc(Cl)cc1Cl` (centres undefined), the cytotoxicity at 70.5 h was -10.4%.

As for `CSCc1cccc(S(=O)(=O)N2CCCC2)c1`, the cytotoxicity at 70.5 h was -6.64%.

For the compound `Cc1cc(C)cc(NS(=O)(=O)c2cc3c(c(C(=O)O)c2)OCCO3)c1`, the cytotoxicity at 70.5 h was -5.38%.

For the compound `Fc1ccc(-c2noc(C3COCCO3)n2)cc1F` (centres undefined), the cytotoxicity at 70.5 h was -1.66%.

For the compound `CN(c1nccc(-c2cnc3sc(Cl)cn3c2=O)n1)C1CCCCC1`, the cytotoxicity at 70.5 h was -3.38%.

In the case of `Cn1nc(C2CCCN(Cc3ccc(F)cc3F)C2)c2nccnc21` (centres undefined), the cytotoxicity at 70.5 h amounted to 0.45%.

As for `Cc1nc[nH]c1CN1CCN(C(=O)CN2CCCC2)[C@H]2CS(=O)(=O)C[C@H]21`, the cytotoxicity at 70.5 h came out at 3.25%.

In the case of `N#Cc1cccc(N2CC3(CCN(C(=O)c4ccncc4)C3)CC2=O)c1` (centres undefined), the cytotoxicity at 70.5 h is -5.96%.

As for `CC(C)Cn1cncc1Cn1cccc(C(F)(F)F)c1=O`, the cytotoxicity at 70.5 h is -2.53%.

Consider `CN(C)c1ncccc1CNC(=O)N1CCN(C)c2ccccc2C1`, for which the cytotoxicity at 70.5 h is -8.8%.

For `O=C(NCCN1CCOCC1)c1nc(-c2ccc3[nH]ccc3c2)no1`, the cytotoxicity at 70.5 h was -30.5%.

As to `COC(=O)c1cccc(C2CNCCN2C)c1` (centres undefined), the cytotoxicity at 70.5 h was found to be 12%.

Take `Cc1nc([C@@H]2C[C@@H]3CCN(C(=O)Cc4cccs4)C[C@H]3O2)no1`: the cytotoxicity at 70.5 h is -11.4%.

Consider `CCN(c1ccc(C(=O)N2CCCC2c2cnn(C)c2)cn1)C(C)C` (centres undefined), for which the cytotoxicity at 70.5 h is 16.2%.

With `CCCn1c(C)cc(C(=O)CN2C(=O)c3ccccc3CS2(=O)=O)c1C`, the cytotoxicity at 70.5 h was -10.8%.

Take `O=C(Cc1ccccn1)N1CCN(CC2CC2)c2ncccc2C1`: the cytotoxicity at 70.5 h was -4.27%.

For the compound `O=C1CCc2cc(S(=O)(=O)NCc3cc4n(n3)CCNC4)ccc2N1`, the cytotoxicity at 70.5 h was -16.4%.

Turning to `CCCc1cc(N2CCCCC2Cn2cc(C)cn2)n2ncnc2n1` (centres undefined), the cytotoxicity at 70.5 h was -6.83%.

Take `CCOC(=O)N1CCN(C(=O)c2cc(-c3ccc(C)cc3)on2)CC1`: the cytotoxicity at 70.5 h came to 5.24%.

`CCOc1ccc(C2CC(=O)NCc3nc(N)sc32)cc1CO` (centres undefined): the cytotoxicity at 70.5 h is -6.2%.

For the compound `Cc1oc(-c2ccccc2)nc1C(=O)NC1=NCCS1`, the cytotoxicity at 70.5 h was -0.24%.

For `O[C@@H]1CCN(c2ccc3c(Cl)ccnc3c2F)C1`, the cytotoxicity at 70.5 h was -8.44%.

With `Cc1occc1C(=O)N1CCC2(CCN(C(=O)c3cccnc3)C2)CC1`, the cytotoxicity at 70.5 h worked out at 5.51%.

As for `CC(C)c1noc(C(C)N2CCN(Cc3nnc(C4CC4)o3)CC2)n1` (centres undefined), the cytotoxicity at 70.5 h is -3.65%.

Regarding `COc1ccc2c(c1)c(C(=O)Nc1nnn[nH]1)cn2C`, the cytotoxicity at 70.5 h is -13.5%.

For the compound `COc1cc(C2(C(=O)N3CCN(CC(C)(C)O)CC3)CC2)ccc1C`, the cytotoxicity at 70.5 h is -0.73%.

For `CN1CC(c2ccccc2)CC12CCN(C(=O)c1c(Cl)cnn1C)CC2` (centres undefined), the cytotoxicity at 70.5 h was -7.56%.

Regarding `COc1ccc(/C=C/CN2CCN(c3ncccc3C(N)=O)CC2)cc1`, the cytotoxicity at 70.5 h is -1.81%.

On to `CC(=O)NCCc1ccc(S(=O)(=O)Nc2ccc(C)c(F)c2)s1`, for which the cytotoxicity at 70.5 h is -5.64%.

`CC(C)n1cc(C(=O)NCC(CO)Cc2cccs2)cn1` (centres undefined): the cytotoxicity at 70.5 h was -8.73%.

On to `CC(C)c1cc(Br)ccc1NC(=O)NCC(O)CO` (centres undefined), for which the cytotoxicity at 70.5 h is -3.27%.

`O=C1C(Nc2nccn3cnnc23)CCCN1c1ccccc1Cl` (centres undefined): the cytotoxicity at 70.5 h is -2.45%.

`CC(Nc1c(F)cc(C#N)cc1F)c1cccc(S(N)(=O)=O)c1` (centres undefined): the cytotoxicity at 70.5 h was -9.34%.

`CN(Cc1cc(Br)cs1)Cc1nnsc1Cl`: the cytotoxicity at 70.5 h was -8.26%.

`CN(C)C(=O)N1CCC2(CC1)NC(=O)c1ccccc12`: the cytotoxicity at 70.5 h is -2.99%.

With `COC(CNC(=O)c1cc(C)on1)c1ccccc1C` (centres undefined), the cytotoxicity at 70.5 h is -2.28%.

Turning to `O=C(Cc1ccccc1Cl)Nc1ccn(CCN2CCOCC2)n1`, the cytotoxicity at 70.5 h is -12.9%.

For `CCC(=O)N(CC)CCc1nccs1`, the cytotoxicity at 70.5 h was -9.4%.

For `OC1(CNc2ccccc2)CCNCC1`, the cytotoxicity at 70.5 h is -7.62%.

On to `CS(=O)(=O)N1CCc2sc(C(=O)NCc3ccccc3)cc21`, for which the cytotoxicity at 70.5 h was -9.68%.

In the case of `CN(C)c1ncc(CN2CCC(O)(c3ccccc3F)CC2)cn1`, the cytotoxicity at 70.5 h is -2.07%.

For the compound `CCN(C(=O)Nc1nccs1)C(C)c1cccc(O)c1` (centres undefined), the cytotoxicity at 70.5 h is -9.8%.

In the case of `Cc1nc2n(n1)CC(Nc1nc(-c3ccccc3)no1)CC2` (centres undefined), the cytotoxicity at 70.5 h is -0.185%.

For `CC(Cc1cn(CCc2nc(N)cc(O)n2)nn1)c1ccccc1` (centres undefined), the cytotoxicity at 70.5 h is -11.4%.

As to `Cc1cc(C)n(CC2CCCCN2C(=O)c2cnn(C)c2)n1` (centres undefined), the cytotoxicity at 70.5 h came out at 8.99%.

Take `Cc1ncsc1C(=O)NCCNc1ncccn1`: the cytotoxicity at 70.5 h stood at 13.7%.

With `CN(C)C(=O)N[C@@H]1CN(C2CCOCC2)[C@@H]2CCCO[C@@H]21`, the cytotoxicity at 70.5 h was -2.52%.

As for `CC(=O)NCC1CN(c2ccc3c(Cl)ccnc3c2F)CCO1` (centres undefined), the cytotoxicity at 70.5 h is -7.29%.

Turning to `Cc1ccc([C@H]2CN(C(=O)C3CCC3)C[C@@H]2N)o1`, the cytotoxicity at 70.5 h is -1.49%.

Turning to `Cc1cc2ccccc2n1CC(=O)NC(C)C(=O)N1CCOCC1` (centres undefined), the cytotoxicity at 70.5 h is -8.04%.

For `Cc1cc2c(=O)n3c(nc2s1)CCN(C(=O)c1c(C)noc1C)CC3`, the cytotoxicity at 70.5 h was -3.89%.

Consider `Fc1ccc(CN2CCc3ncnc(C4CCOC4)c3CC2)cc1` (centres undefined), for which the cytotoxicity at 70.5 h was -5.46%.

On to `O=S(=O)(Cc1ccc(F)cc1F)NCCOc1cccnc1`, for which the cytotoxicity at 70.5 h is -18.9%.

As to `Cc1nc(C2CCCN2CCc2ccccn2)no1` (centres undefined), the cytotoxicity at 70.5 h is -5.46%.

Regarding `O=C(NCCN1CCOCC1)c1scnc1Cl`, the cytotoxicity at 70.5 h was -15.1%.

Take `CC(O)CN1CCC(CN(C)Cc2cc(C#N)ccc2F)CC1` (centres undefined): the cytotoxicity at 70.5 h is -7.5%.

As for `Cn1ccnc1CN1CCOCC(Cc2ccccn2)C1` (centres undefined), the cytotoxicity at 70.5 h was -12.6%.

Regarding `COc1cccc([C@@H]2CCN(Cc3cn(C)c4ccccc34)C[C@H]2O)c1`, the cytotoxicity at 70.5 h was -10.7%.

In the case of `Cc1cnccc1NC(=O)CCc1ccsc1`, the cytotoxicity at 70.5 h was -13.1%.

Regarding `Cc1ccc(N2CCO[C@H]3[C@H](OCC(=O)N4CCCC4)CC[C@@H]32)cc1`, the cytotoxicity at 70.5 h was -1.99%.

In the case of `O=C(c1ccc(-n2cccn2)cc1Cl)N1CCCC(O)(CO)C1` (centres undefined), the cytotoxicity at 70.5 h is -4.68%.

`COC(=O)c1ccc(S(=O)(=O)NCC(C)(O)c2cccs2)cc1` (centres undefined): the cytotoxicity at 70.5 h is -9.34%.

For the compound `O=C(CCn1cncn1)N1CCCC1c1noc(C2CC2)n1` (centres undefined), the cytotoxicity at 70.5 h is -7.06%.

Regarding `COCc1cc(NCc2ccccc2OC)ncn1`, the cytotoxicity at 70.5 h is -7.89%.

Regarding `CCOc1ccc(CC(=O)N2CCCC2c2cc(C)on2)cc1` (centres undefined), the cytotoxicity at 70.5 h is -3.15%.

As to `Cn1cc(C(=O)N2CCCC(Cc3nccs3)C2)cn1` (centres undefined), the cytotoxicity at 70.5 h was -1.09%.

`N#Cc1ccc(OC2CCN(C(=O)c3ccccc3Cl)CC2)nc1`: the cytotoxicity at 70.5 h is -5.83%.

As for `Cc1cc(C)cc(OCCN(C)Cc2ccc(S(=O)(=O)N(C)C)o2)c1`, the cytotoxicity at 70.5 h was determined as 19.6%.

Take `CCc1ccc(CN2CCC(=O)N(CC3CC3)C(C(C)C)C2)nc1` (centres undefined): the cytotoxicity at 70.5 h is -11.4%.

Regarding `CC(=O)Nc1nc(C(=O)NC(C)c2ccc3c(c2)OCCO3)cs1` (centres undefined), the cytotoxicity at 70.5 h is -11.4%.

Take `CC(=O)c1cccc(NC(=O)C2CN(S(=O)(=O)C3CC3)C2)c1`: the cytotoxicity at 70.5 h was -2.67%.

For `COc1cccc(-c2cnc(C3CCNCC3)cn2)c1`, the cytotoxicity at 70.5 h is -4.54%.

For the compound `CC(=O)N(C)c1nc(Cn2nnnc2C(C)C)cs1`, the cytotoxicity at 70.5 h was -6.77%.

Take `CC(c1ccco1)N(C)Cc1nc2c(cnn2C)c(=O)[nH]1` (centres undefined): the cytotoxicity at 70.5 h is -11.1%.

On to `CS(=O)(=O)NCC1CCCN(C(=O)c2ccc3c(c2)CCC3)C1` (centres undefined), for which the cytotoxicity at 70.5 h is 3.24%.

On to `Cc1csc(CN2CC[C@H]3C[C@H](c4ccncn4)O[C@@H]3C2)n1`, for which the cytotoxicity at 70.5 h was -2.15%.

For the compound `NC(=O)CN1CCC(NC2CCCCc3ccccc32)CC1` (centres undefined), the cytotoxicity at 70.5 h was 5.24%.

Turning to `CN(C)c1nc2sc(C(=O)N3CCNC(=O)CC3)cc2s1`, the cytotoxicity at 70.5 h is -10.2%.

For the compound `Cn1cc(S(=O)(=O)N2CCCC2Cn2ccnc2)cc1C(N)=O` (centres undefined), the cytotoxicity at 70.5 h is -5.85%.

As to `CCN1CCNC(=O)C12CCN(C(=O)c1ccccn1)CC2`, the cytotoxicity at 70.5 h came out at 18.3%.

With `Cc1occc1CNC(=O)C1(C)CCCN(C(=O)c2ccccc2)C1` (centres undefined), the cytotoxicity at 70.5 h amounted to 0.298%.

Consider `CCOc1cccc(C2CC(=O)NCc3nc(N4CCCC4)sc32)c1` (centres undefined), for which the cytotoxicity at 70.5 h is -3%.

Take `CCNc1nnc(SCC(=O)N2CCN(Cc3ccc(Cl)s3)CC2)s1`: the cytotoxicity at 70.5 h is -0.322%.

On to `CCc1c(C)[nH]c(C2(N)CCCC2)nc1=O`, for which the cytotoxicity at 70.5 h was -2.07%.

As for `CCOC(=O)N1[C@@H](c2ccco2)[C@@H](CO)C[C@]12CCCCNC2=O`, the cytotoxicity at 70.5 h is -6.22%.

With `Cc1ccc(CN2CCC(F)(F)C3(CCN(c4cnccn4)C3)C2)o1` (centres undefined), the cytotoxicity at 70.5 h is -1.47%.

`CN(Cc1cnn(C)c1)C(=O)C1COCC(=O)N1Cc1ccccc1` (centres undefined): the cytotoxicity at 70.5 h is -4.96%.

In the case of `O=C(NCC(F)(F)F)c1ccc(-c2ccco2)[nH]c1=O`, the cytotoxicity at 70.5 h is -4.71%.

Regarding `Cc1cnc(NC(=O)N2CCOCC2)s1`, the cytotoxicity at 70.5 h is -2.62%.

As for `Cc1ccc(CN2C[C@@H](OCc3ccccn3)[C@H]3COC[C@H]32)o1`, the cytotoxicity at 70.5 h is -5%.

Turning to `Nc1ncccc1CN1C[C@@H](C(=O)O)[C@H](c2cccc(F)c2)C1`, the cytotoxicity at 70.5 h is 1.75%.

Regarding `Cc1ccccc1CCC1CCCN(Cc2nnc(-c3ccco3)o2)C1` (centres undefined), the cytotoxicity at 70.5 h is -12.7%.

Turning to `O=C(CSc1ccccc1Cl)NS(=O)(=O)c1ccc2c(c1)OCCO2`, the cytotoxicity at 70.5 h is -4.84%.

In the case of `COCC1COCCC12CCN(S(=O)(=O)c1ccccc1)CC2` (centres undefined), the cytotoxicity at 70.5 h was 0.595%.

Turning to `O=C(CCO)N[C@H]1CN(CC2CCC2)C[C@@H]1c1ccccc1`, the cytotoxicity at 70.5 h was -3.06%.

For the compound `O=C(c1cc(=O)c(OCc2ccccc2)co1)N1CCSCC1`, the cytotoxicity at 70.5 h is -18.7%.

For the compound `COCCN1CCn2cc(CN(C)Cc3ccco3)nc2C1`, the cytotoxicity at 70.5 h is -7.59%.
